In US11896650B2, “Enhancing chemotherapy in medulloblastoma and glioblastoma with high basal p53 levels” (GEORGETOWN UNIVERSITY, priority 2018, dated 2024):

Assays:
Assay type in all cases: cell-based
p110 = test: Cell viability of cells overexpressing p110 with added mTOR/AKT signaling inhibitor
Method: FIGS. 3A, 3B, 3C, 3D, and 3E show the effects of over expression of p110-caax on D556 and D283 cell survival. D556 cells were transformed with p110 or control plasmid, and Western blots for p110 and β-actin were run (FIG. 3A). The effects of overexpression of p110 on cell viability were determined via Trypan blue assay on D283 cells (FIG. 3B, upper right panel) and D556 cells (FIG. 3C, lower left panel) showing Trypan blue assay results; lower middle panel showing). Cell viability for D556 cells was also measured by propidium iodide (PI) staining and measured by flow cytometry (FIG. 3D, lower middle panel)). Reversal of chemosensitivity induced by p110 overexpression is shown when an inhibitor of mTOR/AKT signaling (Rad001/Everolimus) is added (FIG. 3E)
D556 cells were transformed with p110 or control plasmid and Western blots for p110 and β-actin were run (FIG. 3A). The effects of overexpression of p110 on cell viability were determined via Trypan blue assay on D283 cells (FIG. 3B) and D556 cells (FIG. 3C). Cell viability for D556 cells was also measured by propidium iodide (PI) staining and measured by flow cytometry (FIG. 3D).

pmTOR in D556 cells = test: Western blot for pmTOR in D556 cells infected with p53 shRNA or control pLKO lentivirus
Method: D556 cells were infected with either p53 shRNA or control pLKO lentivirus and Western blotting was performed to show the effect of p53 inhibition on pmTOR.

D556 cells [1] = test: Cell survival of D556 cells after p53 knockdown and drug treatment; conditions: 18 hours treatment
Method: (§1) Comparative sensitivities of D556 cells treated with cisplatin (FIG. 6B) or vincristine (FIG. 6C) were tested at the concentrations shown and in the presence or absence of thymosin β-4 (5 nM). * p<0.05, N>3 separate experiments.
(§2) For chemosensitivity testing, the effects of p53 knockdown on cell survival of D556 cells treated with doxorubicin (dox), vincristine (vinc) and cisplatin (csp) was further assessed.

D556 cells [2] = test: Apoptotic cell death of D556 cells after p53 and mTOR shRNA knockdown and drug treatment (trypan blue, annexin V/PI); conditions: p53 loss plus mTOR knockdown
Method: FIGS. 2A, 2B and 2C show the effect of silencing of p53 and mTOR in D556 cells. FIG. 2A and FIG. 2B are bar graphs showing the proportion of cells undergoing apoptotic cell death as a result of infection with p53 shRNA, control pLKO, mTOR and both p53 and mTOR lentivirus in D556 cells treated for 18 hrs with DMSO, VMY (30 uM) or doxorubicin (1 uM) as assessed using Trypan blue (FIG. 2A) and annexin V and propidium iodide (PI) staining (FIG. 2B) and measured by flow cytometry. Data are shown as percent change in staining versus pLKO-control infected cells.
The proportion of cells undergoing apoptotic cell death as a result of infection with p53 shRNA, control pLKO, mTOR and both p53 and mTOR lentivirus in D556 cells treated for 18 hrs with DMSO, VMY (30 uM) or doxorubicin (1 uM) was assessed using trypan blue (FIG. 2A) and annexin V and propidium iodide (PI) staining (FIG. 2B) and measured by flow cytometry. Data were determined as the percent change in staining versus pLKO-control infected cells.

D556 cells [3] = test: Cell viability of D556 cells treated with chemotherapeutic agents with or without Tβ-4 (propidium iodide staining, flow cytometry; wst-1)
Method: (§3) FIGS. 4A, 4B, and 4C show the effects of thymosin beta-4 (Tβ-4) on D556 and D283 cell survival. For cell viability assays, D556 cells (FIG. 4A) and D283 cells (FIG. 4B) were treated with DMSO, doxorubicin, or VMY in the presence or absence of Tβ-4, and cell viability as measured using propidium iodide (PI) staining with flow cytometry. Control cells were untreated. […] GADPH expression was used as a control.
(§4) The effect of Tβ-4 was evaluated using a cell viability assay for D556 and D283 cells. D556 and D283 cells were treated with 5 nM Tβ-4 and either doxorubicin or VMY. Viability of D556 cells (FIG. 4A) and of D283 cells (FIG. 4B) was measured using propidium iodide (PI) staining with flow cytometry. A dose response curve was performed for D556 cells treated with vincristine alone or vincristine plus Tβ-4 using a cellular proliferation assay kit wst-1 (FIG. 4C).

D283 cells = test: Cell viability of D283 cells treated with chemotherapeutic agents with or without Tβ-4 (propidium iodide staining, flow cytometry)
Method: as §3, §4

[4] = test system: Akt, PP2A (α and c subunit), PARP and RIP1 in D556 cells; test: Western blot of D556 cells after Tβ-4 treatment
Method: FIGS. 5A, 5B, 5C and 5D are Western blots showing that Tβ-4 treatment of D556 cells induces expression of Akt, PP2A (α and c subunits), PARP, and RIP1.
To further assess the mechanism of effect of Tβ-4 treatment of D556 cells, Western blot were performed.

D556 cells [5] = test: Chemosensitivity testing of D556 cells with cisplatin or vincristine in presence or absence of Tβ-4; conditions: Tβ-4 5 nM; p<0.05
Method: as §1, §2

[6] = with doxorubicin, vincristine, VMY-1-103

Compound: CO[C@H]1C[C@@H]2CC[C@@H](C)[C@@](O)(O2)C(=O)C(=O)N2CCCC[C@H]2C(=O)O[C@H]([C@H](C)C[C@@H]2CC[C@@H](OCCO)[C@H](OC)C2)CC(=O)[C@H](C)/C=C(\C)[C@@H](O)[C@@H](OC)C(=O)[C@H](C)C[C@H](C)/C=C/C=C/C=C/1C [Rad001/Everolimus, Everolimus]
- effect on chemosensitivity induced by p110 overexpression (p110): reversed the chemosensitivity induced by p110

Compound: CC(C)[C@H](CO)Nc1nc(Nc2ccc(C(=O)NCCNS(=O)(=O)c3cccc4c(N(C)C)cccc34)c(Cl)c2)c2ncn(C(C)C)c2n1 [VMP]
- pmTOR level in cells infected with p53 shRNA vs control pLKO lentivirus (pmTOR in D556 cells): induction of pmTOR

Compound: N.N.[Cl][Pt][Cl] [cisplatin]
- cell survival of p53 shRNA infected D556 cells vs control pLKO lentivirus (D556 cells [1]): lower percentage of cell survival

Compound: COc1cccc2c1C(=O)c1c(O)c3c(c(O)c1C2=O)C[C@@](O)(C(=O)CO)C[C@@H]3O[C@H]1C[C@H](N)[C@H](O)[C@H](C)O1 [doxorubicin]
- pmTOR level in cells infected with p53 shRNA vs control pLKO lentivirus (pmTOR in D556 cells): induction of pmTOR
- cell survival of p53 shRNA infected D556 cells vs control pLKO lentivirus (D556 cells [1]): lower percentage of cell survival
- chemoresistance of p53-suppressed D556 cells after shRNA knockdown of mTOR (D556 cells [2]): restoring chemoresistance

Compound: CC[C@]1(O)C[C@H]2CN(CCc3c([nH]c4ccccc34)[C@@](C(=O)OC)(c3cc4c(cc3OC)N(C=O)[C@H]3[C@@](O)(C(=O)OC)[C@H](OC(C)=O)[C@]5(CC)C=CCN6CC[C@]43[C@@H]65)C2)C1 [vincristine]
- cell survival of p53 shRNA infected D556 cells vs control pLKO lentivirus (D556 cells [1]): lower percentage of cell survival
- chemoresistance of p53-suppressed D556 cells after shRNA knockdown of mTOR (D556 cells [2]): restoring chemoresistance

Compound: Tβ-4: multifunctional regenerative peptide, sequence MSDKPDMAEIEKFDKSKLKKTETQEKNPLPSKETIEQEKQAGES (SEQ ID NO:1); PI3K activator; commercially available as RGN-352 (MSDKPDMAEIEKFDKSKLKKTETQEKNPLPSKETIEQEKQAGES; listed as Homo sapiens)
- Tβ-4 sensitivity of cell line (D556 cells [3]; D556 cells): sensitive
- sensitization of MB cells with high p53 levels to chemotherapeutic agents (D556 cells [3]; [6]): sensitizes MB cells with high p53 levels to chemotherapeutic agents
- Tβ-4 sensitivity of cell line (D283 cells; D286 cells): insensitive
- protection of D283 (p53 low) cells from chemotherapeutic agents (D283 cells; [6]): protects D283 (p53 low) cells from the same drugs
- protein induction by Western blot [4]: induces Akt, PP2A (α and c subunit), PARP and RIP1
- sensitivity of D556 cells to cisplatin in presence vs absence of Tβ-4 (D556 cells [5]): significantly more sensitivity
- sensitivity of D556 cells to vincristine in presence vs absence of Tβ-4 (D556 cells [5]): significantly more sensitivity
